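Cells were grown in 96-well plates and exposed to each compound for 48 hours at five concentrations; endpoints were interpolated linearly between bracketing concentrations, or set to the highest concentration if not reached. The concentration for 50% growth inhibition is given as GI50. The concentration for full growth arrest is given as TGI.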
Assays:
Assay in all cases: growth of human tumour cells (NCI), 48 h
SN12C renal = test system: SN12C renal
M14 melanoma = test system: M14 melanoma
UACC-257 melanoma = test system: UACC-257 melanoma
ACHN renal = test system: ACHN renal
OVCAR-4 ovarian = test system: OVCAR-4 ovarian
UACC-62 melanoma = test system: UACC-62 melanoma
HL-60(TB) leukemia = test system: HL-60(TB) leukemia
OVCAR-5 ovarian = test system: OVCAR-5 ovarian
SNB-19 CNS = test system: SNB-19 CNS
NCI-H460 lung = test system: NCI-H460 lung
MCF7 breast = test system: MCF7 breast
K-562 leukemia = test system: K-562 leukemia
COLO 205 colon = test system: COLO 205 colon
BT-549 breast = test system: BT-549 breast
EKVX NSCLC = test system: EKVX NSCLC
KM12 colon = test system: KM12 colon
SK-MEL-5 melanoma = test system: SK-MEL-5 melanoma
SK-MEL-2 melanoma = test system: SK-MEL-2 melanoma
SW-620 colon = test system: SW-620 colon
NCI-H226 lung = test system: NCI-H226 lung
HOP-92 NSCLC = test system: HOP-92 NSCLC
HCT-116 colon = test system: HCT-116 colon
NCI/ADR-RES ovarian = test system: NCI/ADR-RES ovarian
SK-MEL-28 melanoma = test system: SK-MEL-28 melanoma
UO-31 renal = test system: UO-31 renal
HT29 colon = test system: HT29 colon
SF-268 CNS = test system: SF-268 CNS
OVCAR-8 ovarian = test system: OVCAR-8 ovarian
LOX IMVI melanoma = test system: LOX IMVI melanoma
DU-145 prostate = test system: DU-145 prostate
MDA-MB-231 breast = test system: MDA-MB-231 breast
CAKI-1 renal = test system: CAKI-1 renal
U251 CNS = test system: U251 CNS
MALME-3M melanoma = test system: MALME-3M melanoma
RPMI-8226 leukemia = test system: RPMI-8226 leukemia
OVCAR-3 ovarian = test system: OVCAR-3 ovarian
SF-295 CNS = test system: SF-295 CNS
SK-OV-3 ovarian = test system: SK-OV-3 ovarian
HS 578T breast = test system: HS 578T breast
HCT-15 colon = test system: HCT-15 colon
A498 renal = test system: A498 renal
CCRF-CEM leukemia = test system: CCRF-CEM leukemia
A549 NSCLC = test system: A549 NSCLC
HCC-2998 colon = test system: HCC-2998 colon
HOP-62 NSCLC = test system: HOP-62 NSCLC
TK-10 renal = test system: TK-10 renal
SR leukemia = test system: SR leukemia
T-47D breast = test system: T-47D breast
PC-3 prostate = test system: PC-3 prostate
MOLT-4 leukemia = test system: MOLT-4 leukemia
786-0 renal = test system: 786-0 renal
SNB-75 CNS = test system: SNB-75 CNS
NCI-H522 lung = test system: NCI-H522 lung
MDA-MB-435 = test system: MDA-MB-435
NCI-H23 lung = test system: NCI-H23 lung
SF-539 CNS = test system: SF-539 CNS
IGROV1 ovarian = test system: IGROV1 ovarian
RXF 393 renal = test system: RXF 393 renal

CC(C)(C)Nc1nc2c(OCCc3ccccc3)cccn2c1-c1ccc(Cl)cc1
GI50 (SN12C renal): 22.4 µM | TGI (SN12C renal): > 100 µM | GI50 (M14 melanoma): 26.3 µM | TGI (M14 melanoma): 71.2 µM | GI50 (UACC-257 melanoma): 26.4 µM | TGI (UACC-257 melanoma): 89.9 µM | GI50 (ACHN renal): 27.3 µM | TGI (ACHN renal): > 100 µM | GI50 (OVCAR-4 ovarian): 26.7 µM | TGI (OVCAR-4 ovarian): > 100 µM | GI50 (UACC-62 melanoma): 16 µM | TGI (UACC-62 melanoma): 38.3 µM | GI50 (HL-60(TB) leukemia): 25.7 µM | TGI (HL-60(TB) leukemia): 74.5 µM | GI50 (OVCAR-5 ovarian): 23.7 µM | TGI (OVCAR-5 ovarian): > 100 µM | GI50 (SNB-19 CNS): 32.3 µM | TGI (SNB-19 CNS): > 100 µM | GI50 (NCI-H460 lung): 18.9 µM | TGI (NCI-H460 lung): 50.5 µM | GI50 (MCF7 breast): 21.1 µM | TGI (MCF7 breast): 93.5 µM | GI50 (K-562 leukemia): 26.4 µM | TGI (K-562 leukemia): > 100 µM | GI50 (COLO 205 colon): 16.4 µM | TGI (COLO 205 colon): 34.7 µM | GI50 (BT-549 breast): 19.6 µM | TGI (BT-549 breast): 49.5 µM | GI50 (EKVX NSCLC): 22.5 µM | TGI (EKVX NSCLC): 86 µM | GI50 (KM12 colon): 22.2 µM | TGI (KM12 colon): 69.9 µM | GI50 (SK-MEL-5 melanoma): 17 µM | TGI (SK-MEL-5 melanoma): 32.6 µM | GI50 (SK-MEL-2 melanoma): 12.8 µM | TGI (SK-MEL-2 melanoma): 28.8 µM | GI50 (SW-620 colon): 28.1 µM | TGI (SW-620 colon): > 100 µM | GI50 (NCI-H226 lung): 18.1 µM | TGI (NCI-H226 lung): 60 µM | GI50 (HOP-92 NSCLC): 17.4 µM | TGI (HOP-92 NSCLC): 67.2 µM | GI50 (HCT-116 colon): 17.6 µM | TGI (HCT-116 colon): 43.4 µM | GI50 (NCI/ADR-RES ovarian): 21.6 µM | TGI (NCI/ADR-RES ovarian): 82.4 µM | GI50 (SK-MEL-28 melanoma): 27.6 µM | TGI (SK-MEL-28 melanoma): > 100 µM | GI50 (UO-31 renal): 11.3 µM | TGI (UO-31 renal): 39.7 µM | GI50 (HT29 colon): 19.7 µM | TGI (HT29 colon): 53.6 µM | GI50 (SF-268 CNS): 27.1 µM | TGI (SF-268 CNS): > 100 µM | GI50 (OVCAR-8 ovarian): 27.1 µM | TGI (OVCAR-8 ovarian): > 100 µM | GI50 (LOX IMVI melanoma): 17.1 µM | TGI (LOX IMVI melanoma): 33.3 µM | GI50 (DU-145 prostate): 25 µM | TGI (DU-145 prostate): > 100 µM | GI50 (MDA-MB-231 breast): 16.7 µM | TGI (MDA-MB-231 breast): 35 µM | GI50 (CAKI-1 renal): 25.1 µM | TGI (CAKI-1 renal): > 100 µM | GI50 (U251 CNS): 18.7 µM | TGI (U251 CNS): 48.7 µM | GI50 (MALME-3M melanoma): 23.9 µM | TGI (MALME-3M melanoma): 59 µM | GI50 (RPMI-8226 leukemia): 20.8 µM | TGI (RPMI-8226 leukemia): 60.4 µM | GI50 (OVCAR-3 ovarian): 16.4 µM | TGI (OVCAR-3 ovarian): 64.8 µM | GI50 (SF-295 CNS): 24.8 µM | TGI (SF-295 CNS): 61.8 µM | GI50 (SK-OV-3 ovarian): 24.5 µM | TGI (SK-OV-3 ovarian): 75.7 µM | GI50 (HS 578T breast): 20.8 µM | TGI (HS 578T breast): 77.5 µM | GI50 (HCT-15 colon): 17.3 µM | TGI (HCT-15 colon): 43.1 µM | GI50 (A498 renal): 15.2 µM | TGI (A498 renal): 62.1 µM | GI50 (CCRF-CEM leukemia): 29.9 µM | TGI (CCRF-CEM leukemia): 97.2 µM | GI50 (A549 NSCLC): 24 µM | TGI (A549 NSCLC): > 100 µM | GI50 (HCC-2998 colon): 28.1 µM | TGI (HCC-2998 colon): > 100 µM | GI50 (HOP-62 NSCLC): 20.2 µM | TGI (HOP-62 NSCLC): 52.8 µM | GI50 (TK-10 renal): 25.3 µM | TGI (TK-10 renal): 79.5 µM | GI50 (SR leukemia): 19.3 µM | TGI (SR leukemia): > 100 µM | GI50 (T-47D breast): 17.7 µM | TGI (T-47D breast): > 100 µM | GI50 (PC-3 prostate): 25.3 µM | TGI (PC-3 prostate): > 100 µM | GI50 (MOLT-4 leukemia): 18.3 µM | TGI (MOLT-4 leukemia): 95.5 µM | GI50 (786-0 renal): 19.4 µM | TGI (786-0 renal): 45.2 µM | GI50 (SNB-75 CNS): 17.6 µM | TGI (SNB-75 CNS): > 100 µM | GI50 (NCI-H522 lung): 16.1 µM | TGI (NCI-H522 lung): 54.3 µM | GI50 (MDA-MB-435): 30.3 µM | TGI (MDA-MB-435): > 100 µM | GI50 (NCI-H23 lung): 25.3 µM | TGI (NCI-H23 lung): 83.4 µM | GI50 (SF-539 CNS): 18.5 µM | TGI (SF-539 CNS): 37.8 µM | GI50 (IGROV1 ovarian): 25.7 µM | TGI (IGROV1 ovarian): > 100 µM | GI50 (RXF 393 renal): 13.4 µM | TGI (RXF 393 renal): 35.6 µM

From PubChem BioAssay (NCI)
